Assay results taken from EP0958819A1, “REMEDIES/PREVENTIVES FOR ABNORMAL MOTIONS ACCOMPANYING DISORDERS IN EXTRAPYRAMIDAL SYSTEM” (Asahi Kasei Kogyo Kabushiki Kaisha, priority 1996, dated 1998).
Where a name gives a salt, the structure may show the parent alone. Marks after values point to notes of the source that are not given here.

Legend:
[1] = tested on: involuntary head-movements induced by IPDN; assay: Antagonistic action against IDPN model (head movements); format: in vivo, Sprague-Dawley rats; conditions: 1 mg/kg p.o.; IDPN 150 mg/kg i.p. for 6 days; counted during 30 minutes starting 30 minutes after dosing; mean ± standard error, 6 rats; control group 347 ± 14.4; p < 0.01
Experimental: When […] (IDPN, Tokyo Kasei Kogyo K.K., Japan) is administered in rats, rapid reciprocation of horizontal and vertical head movements is induced. […] This is very similar to the abnormal movements accompanying disorders of extrapyramidal system of human, which is classified into the group with major symptom of rapid involuntary movement and muscle hypotonia. (Schneider, J. S., Exp. Neurol., 84, 524 - 532, 1984).
IDPN (Tokyo Kasei Kogyo K.K., Japan) 150 mg/kg was administered to Sprague-Dawley rats (Charles River Inc., 7 weeks old) for 6 days intraperitoneally. Animals expressing horizontal and vertical head movements (at initiation of the experiment: 12 - 14 weeks old) within after 2 weeks of administration were used for dyskinesia model animals. The compound of the present invention (1 mg/kg) or distilled water (as a control group) was administered orally in rats. After 30 minutes, numbers of horizontal and vertical head movements neck during 30 minutes thereafter were counted. One reciprocation is counted as one motion.

dystonia model = assay: Inhibitory effect against dystonia model (haloperidol infused into red nucleus); format: in vivo, Wistar rats; conditions: combined infusion of haloperidol 3 nmol and compound 0.03 nmol into red nucleus; maximum torsional angle, mean ± S.D., 12 rats; control (haloperidol 3 nmol) 24.1 ± 1.7; p<0.01
Excerpt: Unilateral infusion of haloperidol into red nucleus of rats results to appear continuous torsional movements of the head when the infusion side was laid down under side. This model reflects dystonia characterized by slow involuntary movement and hypermyotonia, which is one of abnormal movements accompanying disorders of extrapyramidal system. (Matsumoto, R.R. et al. Pharmacol. Biochem. Behavior.,36, 151 - 155, 1989). Evaluation of the compound of the present invention on dystonia model was performed by the following method.
Wistar rats (Japan Charles River Inc., 9 weeks old) were anesthetized by administration of pentobarbital (Somnopentil injection) 50 mg/kg intraperitoneally, and fixed the head by stereotaxic apparatus (David Coop Inc. U.S.A., David kopf). Scalp was incised and the bone of skull was exposed. Guide cannula 25G (Eicom Inc., Japan) was implanted 4.5 mm the above the left red nucleus and fixed with dental cement. After 2 - 3 days, injection cannula 27G (Eicom Inc., Japan) was inserted into the guide cannula without anesthetization. The tip of the cannula was introduced into the red nucleus below 4.5 mm of the guided cannula. […]
Rats were set into the observation cage made with transparent acrylic resin and recorded the front view image by video camera. […]

red nucleus = assay: Effect on the firing rate in the red nucleus (electrophysiology, anesthetized rats); format: in vivo, Wistar rats; conditions: firing rate before administration = 100 %
Excerpt: The red nucleus belongs extrapyramidal system and have an important role for regulating motor function. Destruction of the red nucleus in rats was reported to enhance the catalepsy. (Kolasa. K. et al., Pharmacol. Biochem. Behav.,51, 29 - 35, 1995). As shown in Example 4 dystonia model, unilateral infusion of haloperidol into red nucleus of rats results to appear dystonia. As shown like this, the hypofunction of red nucleus have a close relation with the expression of abnormal movements accompanying disorders of extrapyramidal system. Namely, hypofunction of red nucleus is considered to lead to the abnormal movements accompanying disorder of extrapyramidal system. In this experiment, effect of the compound of the present invention on the haloperidol-induced decrease of firing rate in red nucleus was examined. […]
Electric signals from the glass electrode were amplified with a micro electrode amplifier (MEZ-8301, Nihon Koden Co., Japan), filtered band path of 3 kHz - 50 Hz and humfilter and monitored on a oscilloscope (VC-11, Nihon Koden Co., Japan). […] Number of firing/10 seconds (firing rate) was calculated using pulse counter (MET-1100, Nihon Koden Co., Japan) and recorded by computer (Maclab ver. 3.5. Macintosh) with time dependent manner. […]

[2] = tested on: risperidone-induced catalepsy; assay: Therapeutic effect against catalepsy model, risperidone-induced; format: in vivo, Wistar rats; conditions: 1 mg/kg p.o. given 75 minutes after risperidone 20 mg/kg i.p. to rats showing catalepsy; measured 105 minutes after compound; 5 to 6 rats
Experimental: (§1) Therapeutic effects of the compound of the present invention on haloperidol or risperidone induced catalepsy were examined using Wistar rats, male (Charles River Inc., Canada).
After further 15 minutes, the compound of the present invention or distilled water was administered orally. Therapeutic effect of the present compound against risperidone induced catalepsy was measured after 105 minutes of administration of the compound of the present invention.
(§2) Catalepsy was observed by hanging rats in their forepaws on the iron bar, diameter 2 mm, set on the position of 12 cm high, and we measured the duration of catalepsy. Measurements were conducted maximum for 180 seconds. Experiments were conducted in a group of 10 rats for haloperidol-induced catalepsy test and a group of 5 to 6 rats for risperidone induced catalepsy test. The mean duration of catalepsy in distilled water (vehicle of the compound in present invention)-administered group was defined as 100 %. Suppressive rate was indicated as percent of the shortening on the duration of catalepsy in the compound-administered group comparing with the mean of that in distilled water administered group.

[3] = tested on: risperidone-induced catalepsy; assay: Preventive effect for catalepsy model, risperidone-induced; format: in vivo, Wistar rats; conditions: 1 mg/kg p.o. 30 minutes before risperidone 20 mg/kg i.p.; catalepsy observed 1 hour after risperidone; shortening of catalepsy duration vs distilled water group; 5 rats
Experimental: (§3) When a drug having dopamine receptor blocking activity is administered in rats, catalepsy induced. Catalepsy means a symptom of rats, which can not recovered by own intention, when rats are enforced unnatural posture, and it reflects abnormal movements consisting of mainly tremor, muscle rigidity and hypokinesia. (Hornykiewicz, O. Br. Med. Bull., 29, 172 - 178, 1973). […] (Schmidt, W.J. and Bubser, M., Pharmacol. Biochem. Behavior., 32, 621 - 623, 1988).
(§4) The compound A hydrochloride, 1mg/kg, was administered orally into Wistar rats, male (Japan Charles River Inc.). After 30 minutes, haloperidol (Sigma Corp., U.S.A.), 2mg/kg, or risperidone, which was extracted from Risperdal (trade name, Janssen Corp.,UK) according to the method hereinbelow explained, 20 mg/kg were administered intraperitoneally. Catalepsy after 1 hour of administration of haloperidol or risperidone was observed. Catalepsy was observed by hanging rats in their forepaws on the iron bar, diameter 2 mm, set on the position of 12 cm high, and we measured the time maintaining this posture. Measurements were conducted maximum for 180 seconds. Experiments were conducted in a group of 10 rats for haloperidol induced catalepsy test and a group of 5 rats for risperidone induced catalepsy test. The mean duration of catalepsy in distilled water (vehicle of the compound in present invention)-administered group was defined as 100 %. […]

[4] = tested on: haloperidol-induced catalepsy; assay: Preventive effect for catalepsy model, haloperidol-induced; format: in vivo, Wistar rats; conditions: 1 mg/kg p.o. 30 minutes before haloperidol 2 mg/kg i.p.; catalepsy observed 1 hour after haloperidol; shortening of catalepsy duration vs distilled water group; 10 rats
Experimental: as §3, §4

[5] = tested on: haloperidol-induced catalepsy; assay: Therapeutic effect against catalepsy model, haloperidol-induced; format: in vivo, Wistar rats; conditions: 1 mg/kg p.o. given 45 minutes after haloperidol 2 mg/kg i.p. to rats showing catalepsy; measured 75 minutes after compound; 10 rats
Experimental: as §1
After further 15 minutes, the compound of the present invention or distilled water was administered orally. Therapeutic effect of the present compound against haloperidol induced catalepsy was measured after 75 minutes of administration of the compound of the present invention.
as §2

## CC1(C)C2CC[C@]1(C)CN(CCC1C3CC4CC(C3)CC1C4)C2 (stereo partly drawn) [Compound A, (1S)-3-[2-(2-adamantyl)ethyl]-1,8,8-trimethyl-3-azabicyclo [3.2.1]-octane]
[1]
  Numbers of oscillation of neck: 224.5 ± 24.4
Dystonia model
  torsional angle of head: 15.5 ± 1.3

## CC1(C)C2CC[C@]1(C)CN(CCC1C3CC4CC(C3)CC1C4)C2 (stereo partly drawn) [Compound A hydrochloride, (1S)-3-[2-(2-adamantyl)ethyl]-1,8,8-trimethyl-3-azabicyclo [3.2.1]-octane]
Red nucleus; compound 0.1 µg/kg i.v. 1 - 3 minutes before haloperidol 0.2 mg/kg i.v., P<0.05
  % Inhibitor of firing rate: 24.7 %*
[2]
  Suppressive rate (mg/kg, p.o.): 48% (1)
[3]
  Suppressive rate (mg/kg, p.o.): 53% (1)
[4]
  Suppressive rate (mg/kg, p.o.): 77% (1)
[5]
  Suppressive rate (mg/kg, p.o.): 50% (1)

## O=C(CCCN1CCC(O)(c2ccc(Cl)cc2)CC1)c1ccc(F)cc1 [haloperidol, reference compound]
Red nucleus; saline i.v. 1 - 3 minutes before haloperidol 0.2 mg/kg i.v.
  % Inhibitor of firing rate: 60.1%
